These results are taken from patent US20180078561A1 (LAM Therapeutics, Inc., priority 2015, published 2018).

In one data set the target is T1, PIKfyve (Homo sapiens, UniProt Q9Y2I7).
T1 construct: purchased DiscoveRx, Fremont, Calif
Kind of data set: dissociation constant (Kd) study. The format is binding. The note with it: 0.05-3000 nM, duplicate. How it is done:
A dissociation constant (Kd) study was performed using the 3 compounds at increasing concentrations (0.05-3000 nM) against PIKfyve.

Another data set deals with cancer cell line. The experiment in a line: vacuolization of cells. Type of data set: cell-based. The note with it: for vacuolation in cells: at concentrations comparable to apilimod. From the text:
PIKfyve is associated with the cytosolic leaflet of early endosomes and its activity is required for endomembrane homeostasis, endolysosomal function and proper retrograde transport from the endosome to the trans-Golgi network. Introduction of a kinase dead mutant into cells induces a swollen vacuole phenotype that can be rescued by the injection of PI(3,5)P2. Inhibition of PIKfyve by pharmacological methods as well as RNAi also produces swollen vacuoles and disruption of endomembrane dynamics.
Introduction of a kinase dead mutant into cells induces a swollen vacuole phenotype that can be rescued by the injection of PI(3,5)P2. Inhibition of PIKfyve by pharmacological methods as well as RNAi also produces swollen vacuoles and disruption of endomembrane dynamics.

Another data set has as its system WSU-DLCL2 cells. The experiment in a line: anti-proliferative activity normalized to apilimod (plasma concentration factors). The format is cell-based, Human. The note with it: data from WSU-DLCL2 cells.
Data set [1] in a line: human plasma profile of apilimod and metabolites. Type of data set: in vivo. The note with it: oral 105 mg doses of apilimod free base, given 10 hr apart.
The next data set concerns THP-1. The note with it: WO 2006/128129; cited from earlier work.
A further data set deals with Jurkat. The note with it: WO 2006/128129; cited from earlier work.
In a further data set the test system is Normal lung fibroblasts. Kind of data set: cytotoxicity on normal cells. The format is cell-based. The note with it: concentrations as high as 10 micromolar. An excerpt:
(§1) 35 cell lines were identified as sensitive to apilimod-induced cytotoxicity.

A further data set relates to Yulac614 melanoma cells. The experiment in a line: drug combination screen and validation, cell viability.
The subject of data set [2] is 122 human cancer cell lines. Kind of data set: cancer cell line screen for sensitivity to apilimod. The note with it: sensitive if IC50 less than 500 nM. Type of data set: cell-based.
Description: as §1
The most sensitive of those tested were non-Hodgkin's Lymphoma (NHL) cell lines. […] NHL represents a diverse group of hematopoietic malignancies that vary in severity, with subtypes ranging from slow growing to aggressive. Subtypes of NHL include diffuse large B cell lymphoma (DLBCL), Burkitt's lymphoma, mantle lymphoma, and follicular B cell lymphoma. DLBCL is divided into two subtypes, GCB and ABC, based on gene expression and cell of origin. The GCB are germinal center B cell type, arising from normal germinal center B cells, and the ABC are activated B cell type, arising from post-germinal center B cells in the process of differentiating into plasma cells.

The next data set concerns SUDHL-4 cells. Kind of data set: drug library screen with and without apilimod, cell viability. The format is cell-based. The note with it: Homo sapiens, SU-DHL-4. From the text:
A manually curated library of 93 drugs including both FDA approved and unapproved drugs was used in the screen.
Ibrutinib is an FDA-approved drug targeting B-cell malignancies and indicated for monotherapy in treating mantle cell lymphoma and chronic lymphocytic leukemia. It is also known as PCI-32765 and marketed under the trade name Imbruvica™. […] BTK is a key mediator of at least three critical B-cell pro-survival mechanisms occurring in parallel-regulation of apoptosis, cell adhesion and cell migration and homing.

In the next data set the test system is H4 neuroglioma cell line. Kind of data set: Cyto-ID Autophagy detection. The format is cell-based, Human. The note with it: 72 hours of treatment. An excerpt:
Autophagy was quantified using the Cyto-ID Autophagy detection kit (Enzo) according to manufacturer's directions.

A further data set concerns H4. Kind of data set: cell viability (CellTiterGlo), apilimod sensitivity. Type of data set: cell-based. The note with it: Homo sapiens, Human neuroglioma.
Description: as §1
In general terms: Cellular ATP, detected with luciferase, serves as a proxy for viable cell number.

For data set [3] the following is noted: for Apilimod Ave. Plasma Conc.: Day 7; for sustained blood concentration of apilimod: measured at 24 h.
Another data set concerns ELT3-EV. The experiment in a line: 10-point dose response, cell viability (CellTiter-Glo). The format is cell-based. The note with it: Rattus norvegicus; cell type ELT3 (ELT3-EV); 72 h; average of two experiments; read-out: IC50 TSC2 −/−.
Data set [4] relates to TRI-AML102 (TSC2 null AML). The description is as above. The format is cell-based. The note with it: Homo sapiens; cell type AML (head: AML TSC2 +/− p53 −/−); 72 h; average of two experiments.
Description: (§2) (2) ELT3-EV and ELT3-TSC2 lines were established from the ELT3 rat tumor cell line. […] To develop an isogenic pair of cells ELT3 cells were infected with a retrovirus vector encoding the hygromycin antibiotic resistance gene (ELT3-EV) or the same retrovirus vector also encoding TSC2 (ELT3-TSC2). The ELT3-EV and ELT3-TSC2 line were then established by hygromycin selection. […] The cells were infected with amphotropic retrovirus LXSN16E6E7 that encodes the HPV16 E6 and E7 open reading frames and neomycin resistance cassette. Cells were expanded and neomycin-selected. Individual clones were isolated and frozen down. The coding sequence for the human Telomerase gene (hTERT) with hygromycin resistance cassette (pLXSN hTERT-hyg plasmid) was stably expressed into a TSC2^−/− confirmed E6E7 AML clone using Fugene6 transfection reagent (Roche Applied Science, Indianapolis, Ind.). TRI-AML102 was generated by stable incorporation of a control zeomycin selection plasmid (pcDNA3.1-zeo), while TRI-AML103 expresses the human TSC2 cDNA pcDNA3.1-zeo plasmid.
Another data set concerns HELA. The note with it: WO 2006/128129; cited from earlier work.
Another data set concerns (TSC2−/−, p53−/−) MEF. The experiment in a line: 10-point dose response, cell viability (CellTiter-Glo). Type of data set: cell-based. The note with it: Mus musculus; cell type MEF TSC2 −/− p53 −/−; 72 h; average of two experiments.
Data set [5] deals with diffuse large B cell lymphoma cells. Kind of data set: Apotox-Glo Triplex assay. Type of data set: cell-based. The note with it: 48 hours after addition. The method, then:
Apoptosis was quantified and distinguished from necrosis using the Apotox-Glo Triplex assay (Promega, Inc.) according to the manufacturer's instructions. In this assay, viability, apoptosis, and necrosis are assessed simultaneously using three different markers (GF-AFC, Caspase-3/7, and bis-AAF-R110, respectively).

Data set [6] relates to peripheral blood mononuclear cells. The note with it: Wada et al., Blood 109, 2007; cited from earlier work.
Another data set has as its system MEF-EV (TSC2−/− MEF). Kind of data set: 10-point dose response, cell viability (CellTiter-Glo). The note with it: Mus musculus; cell type MEF TSC2 −/− (MEF-EV); 72 h; average of two experiments. The format is cell-based. From the text: TSC2 null cells have constitutively active mTOR. Briefly, MEF cells derived from TSC2−/− knockout mouse embryos (Onda et al., J. Clin. Invest. 104(6):687-95, 1999) were infected with a retrovirus vector encoding the hygromycin antibiotic resistance gene (MEF-EV) or the same retrovirus vector also encoding TSC2 (MEF-TSC2). The MEF-EV and MEF-TSC2 line were then established by hygromycin selection.
See e.g., Zhang et al. J. Clin. Invest. 112, 1223-33, 2003. (2) ELT3-EV and ELT3-TSC2 lines were established from the ELT3 rat tumor cell line. The ELT3 line is an established rat tumor model for LAM/TSC. See e.g., Howe et al., Am. J. Path. 146, 1568-79, 1995. These cells harbor an inactivating mutation in TSC2, which leads to constitutive activation of the mTOR pathway. To develop an isogenic pair of cells ELT3 cells were infected with a retrovirus vector encoding the hygromycin antibiotic resistance gene (ELT3-EV) or the same retrovirus vector also encoding TSC2 (ELT3-TSC2). The ELT3-EV and ELT3-TSC2 line were then established by hygromycin selection. […] The cells were infected with amphotropic retrovirus LXSN16E6E7 that encodes the HPV16 E6 and E7 open reading frames and neomycin resistance cassette. […]
IC50 values were then calculated from the dose response curves using XLFIT (IDBS).

The subject of the next data set is U937. The note with it: WO 2006/128129; cited from earlier work.
Data set [7] can be described thus: plasma protein binding. The format is in vitro ADME. The note with it: rat plasma proteins.
Data set [8] in a line: plasma protein binding. The format is in vitro ADME. The note with it: human plasma proteins.
Data set [9] in a line: plasma protein binding. Type of data set: in vitro ADME. The note with it: dog plasma proteins.

“Also recorded” adds a separate entry of the source. Like-named read-outs stand apart in the source and are kept apart here.

T1 sequence (Q9Y2I7 whole entry): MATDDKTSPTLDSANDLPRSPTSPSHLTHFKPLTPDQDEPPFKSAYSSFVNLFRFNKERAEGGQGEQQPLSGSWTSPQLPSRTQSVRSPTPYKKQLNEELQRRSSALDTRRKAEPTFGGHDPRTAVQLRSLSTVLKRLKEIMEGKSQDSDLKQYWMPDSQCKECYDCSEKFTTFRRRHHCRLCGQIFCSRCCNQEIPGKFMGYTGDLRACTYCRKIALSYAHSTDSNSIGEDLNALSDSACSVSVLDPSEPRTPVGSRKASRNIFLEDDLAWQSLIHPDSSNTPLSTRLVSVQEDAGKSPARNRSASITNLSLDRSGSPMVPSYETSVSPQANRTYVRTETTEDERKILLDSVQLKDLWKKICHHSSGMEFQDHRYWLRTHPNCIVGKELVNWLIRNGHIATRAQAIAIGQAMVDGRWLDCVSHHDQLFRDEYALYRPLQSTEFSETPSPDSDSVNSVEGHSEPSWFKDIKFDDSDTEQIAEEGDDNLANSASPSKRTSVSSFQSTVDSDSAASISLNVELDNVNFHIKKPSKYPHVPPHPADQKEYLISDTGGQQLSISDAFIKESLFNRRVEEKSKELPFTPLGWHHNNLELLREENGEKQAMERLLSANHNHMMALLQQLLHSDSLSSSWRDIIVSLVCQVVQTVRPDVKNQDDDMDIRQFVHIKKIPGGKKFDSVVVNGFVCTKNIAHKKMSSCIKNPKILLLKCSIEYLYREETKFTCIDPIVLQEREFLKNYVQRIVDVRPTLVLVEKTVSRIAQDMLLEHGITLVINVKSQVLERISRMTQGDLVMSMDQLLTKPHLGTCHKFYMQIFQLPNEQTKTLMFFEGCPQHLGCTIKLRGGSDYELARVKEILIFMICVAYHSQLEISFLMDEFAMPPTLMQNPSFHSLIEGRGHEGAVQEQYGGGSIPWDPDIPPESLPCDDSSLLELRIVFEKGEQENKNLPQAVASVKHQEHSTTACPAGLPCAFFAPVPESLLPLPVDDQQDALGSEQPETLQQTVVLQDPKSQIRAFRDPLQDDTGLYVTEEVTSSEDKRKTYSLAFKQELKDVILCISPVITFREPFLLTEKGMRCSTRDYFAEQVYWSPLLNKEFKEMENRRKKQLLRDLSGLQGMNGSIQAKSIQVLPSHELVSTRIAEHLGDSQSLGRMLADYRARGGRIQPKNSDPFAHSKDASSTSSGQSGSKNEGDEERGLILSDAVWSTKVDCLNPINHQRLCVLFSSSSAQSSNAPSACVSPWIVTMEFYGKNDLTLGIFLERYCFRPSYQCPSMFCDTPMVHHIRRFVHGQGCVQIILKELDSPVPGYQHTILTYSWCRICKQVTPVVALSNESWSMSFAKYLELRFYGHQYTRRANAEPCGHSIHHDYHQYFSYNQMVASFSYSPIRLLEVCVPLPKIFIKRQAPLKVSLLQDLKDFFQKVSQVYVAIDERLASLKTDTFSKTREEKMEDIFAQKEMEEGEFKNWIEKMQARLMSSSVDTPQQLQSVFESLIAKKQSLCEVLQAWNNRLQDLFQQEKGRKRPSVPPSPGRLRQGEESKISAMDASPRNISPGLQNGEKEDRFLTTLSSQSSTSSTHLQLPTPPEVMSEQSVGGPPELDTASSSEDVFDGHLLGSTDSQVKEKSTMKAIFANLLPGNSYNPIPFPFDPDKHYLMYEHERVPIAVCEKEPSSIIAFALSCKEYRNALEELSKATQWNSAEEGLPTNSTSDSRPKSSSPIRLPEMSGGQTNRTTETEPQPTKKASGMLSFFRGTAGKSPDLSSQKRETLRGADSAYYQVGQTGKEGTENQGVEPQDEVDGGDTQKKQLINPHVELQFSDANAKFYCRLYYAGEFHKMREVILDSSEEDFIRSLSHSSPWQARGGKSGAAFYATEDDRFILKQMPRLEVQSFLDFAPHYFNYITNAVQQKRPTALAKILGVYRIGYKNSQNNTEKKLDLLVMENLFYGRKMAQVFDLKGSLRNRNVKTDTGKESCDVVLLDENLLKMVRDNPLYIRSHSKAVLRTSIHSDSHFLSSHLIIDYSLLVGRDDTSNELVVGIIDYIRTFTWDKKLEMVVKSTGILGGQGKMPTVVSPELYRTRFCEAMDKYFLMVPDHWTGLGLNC
Description for (TSC2−/−, p53−/−) MEF: as §2
Description for ELT3-EV: as §2
Description for Yulac614 melanoma cells: Yulac614 (resistant to vemurafenib, see Choi et al. 2014) cells were used to conduct drug combination studies to identify synergistic drug pairs. A library of 500 unapproved drugs was used to perform drug screening in the presence or absence of vemurafenib (at IC20=6 μM).
30 nL of library drug (at 1000× concentration) was spotted into appropriate wells of a 384 black walled plate (Corning #3712). Duplicate drug-spotted plates were prepared and to them were added Yulac614 cells which were pre-treated with either DMSO (0.01% final) or vemurafenib (6 μM final). The Yulac614 cells were grown in OptiMEM (Life Technologies) containing 5% FBS (Sigma Aldrich F2442-500 mL, Lot 12D370) Penicillin/Streptomycin (100×) (CellGro Ref 30-002). […]
Plates were incubated for 72 h at 37° C. under an atmosphere of 5% CO2 in a humidified incubator. Cell viability was determined with CellTiter-Glo® luminescence assay (Promega) as per the manufacturer's instructions. Viability was expressed as a percentage of control (DMSO) cells. […]
50 uL of the 10 point drug dilution series (at 2× concentration) was added to the cells. […] 72 hours after compound addition relative cell viability was determined by CellTiter-Glo® luminescence assay (Promega) as per the manufacturer's instructions, and values were expressed as a percentage relative to vehicle (DMSO) treated control cells (set to 100%).

A word on the Kd: it is the free concentration of one partner at which half of the binding sites on the other are occupied at equilibrium, for simple one-to-one binding. Low values mean a tighter complex, high ones a looser complex. Turning to `Cc1cccc(/C=N/Nc2cc(N3CCOCC3)nc(OCC(O)c3ccccn3)n2)c1` (stereo not shown) [STA-5908], the Kd at PIKfyve came out at 0.09 nM. Moreover, in the data set with cancer cell line, the vacuolation in cells entry is given as “cause vacuolation in cells at comparable concentrations”. Besides, the “plasma concentration factor (for Apilimod Equivalent Concentrations)” value (from here on “plasma concentration factor”) in the data set with WSU-DLCL2 cells is 0.68. Besides, in data set [1], the “mean Cmax relative to apilimod” value is recorded as “somewhat less than half”.
As usually defined, the IC20 is the concentration at which the effect reaches the 20% level. As for `Cc1cccc(/C=N/Nc2cc(N3CCOCC3)nc(OCCc3ccccn3)n2)c1` [apilimod], the cytotoxicity result (in the data set on THP-1; in the data set with Jurkat; in the data set with HELA; in [6]; in the data set on U937) was “not cytotoxic” each time. Moreover, the apilimod-induced cytotoxicity result in the data set on Normal lung fibroblasts is recorded as “not cytotoxic; also recorded: insensitive”. In addition, the results for the IC20 in the data set on Yulac614 melanoma cells and in the data set with SUDHL-4 cells were 500 nM and 10 nM, respectively. For the same compound, in data set [2] (non-Hodgkin's Lymphoma cell lines), the “NHL cell lines tested that were sensitive to apilimod” value is reported as “over 50%”. In data set [2] (of 122 human cancer cell lines), the “cell lines identified as sensitive to apilimod-induced cytotoxicity” value is on record as 35 cell lines. Besides, the “autophagy (autophagic vacuoles)” value in the data set on H4 neuroglioma cell line was “induced autophagy in a dose-dependent manner”. Also, the IC50 with H4 was 250 to 300 nM; in the data set with ELT3-EV, 13.7 nM; in data set [4] it was 117 nM; with (TSC2−/−, p53−/−) MEF it was 28.8 nM; with MEF-EV (TSC2−/− MEF), 19.7 nM. For the same compound, the “Apilimod Ave. Plasma Conc.” value came to 0.682 µM in data set [3] (Group 3: S.C. pump ~15 mg/kg/d (DRW) + I.P. 30 mg/kg (MC)); 0.613 µM in data set [3] (Group 7: S.C. pump ~15 mg/kg/d (DRW) + I.P. 30 mg/kg (DRD)); 1.76 µM in data set [3] (Group 8: S.C. pump ~30 mg/kg/d (DRW) + I.P. 30 mg/kg (DRD)); 0.755 µM in [3] (Group 9: S.C. pump ~15 mg/kg/d (DRW) only); 1.87 µM in [3] (Group 10: S.C. pump ~30 mg/kg/d (DRW) only). Also, the entries for the “sustained blood concentration of apilimod” value in data set [3] (S.C. osmotic mini-pump 15 mg/kg/day (bis-mesylate salt)) and in data set [3] (S.C. osmotic mini-pump 30 mg/kg/day (bis-mesylate salt)) were greater than 0.5 µM and greater than 1 µM, respectively. For the same compound, in data set [5], the “apoptosis (Caspase-3/7 marker)” value is given as “increased apoptosis”. In addition, the “apilimod concentration at which vacuole formation in cells was observed” value in the data set on cancer cell line (as low as) was determined as 20 nM. In addition, in the data set with cancer cell line (live cells, 500 nM, 24 h), the vacuolization entry is given as “induces vacuolization”.
A word on the fraction unbound: it is free concentration divided by total concentration. Consider `Cc1cccc(/C=N/Nc2cc(N3CCOCC3)nc(OCCc3ccccn3)n2)c1` [apilimod free base], for which the fraction unbound in the data set “plasma protein binding [7]”, in “plasma protein binding [8]” and in the data set “plasma protein binding [9]” was less than 0.01 throughout.
Take `Cc1cccc(/C=N/Nc2cc(N3CCOCC3)nc(OCC(O)c3cccc[n+]3[O-])n2)c1` (stereo not shown) [STA-6048]: binding on PIKfyve was put at a Kd of 0.088 nM. Moreover, the vacuolation in cells result with cancer cell line was “cause vacuolation in cells at comparable concentrations”. Also, the “plasma concentration factor” value with WSU-DLCL2 cells worked out at 0.26.
In turn, `Cc1cccc(/C=N/Nc2cc(N3CCOCC3)nc(OCCc3cccc[n+]3[O-])n2)c1` [STA-5944] came in with a Kd on PIKfyve of 0.061 nM. Also, in the data set with cancer cell line, the vacuolation in cells result is reported as “cause vacuolation in cells at comparable concentrations”. The “plasma concentration factor” value in the data set with WSU-DLCL2 cells came to 0.52. Also, the “mean Cmax relative to apilimod” value in data set [1] is reported as “somewhat less than half”.
